Key:
[1] = target: T1, 2,5-diketo-D-gluconic acid reductase A (Corynebacterium sp., wild type SEQ ID NO:1) variant R235T (Corynebacterium sp., UniProt P06632, R235T); assay: Kinetic determination with purified enzyme, NADH cofactor, initial rates (microtiter plate); assay type: biochemical
T1 construct: GroES fragment (N); made in house; host or cells: E. coli JM109
Experimental: (§1) The activities of the purified enzymes were assayed in 96-well microtiter plates on a plate reader.
(§2) Equation (1) is: [formula]
(§3) B=2,5-diketo-D-gluconic acid concentration;
(§4) Kb=Michaelis Constant for 2,5-diketo-D-gluconic acid;
(§5) Kia=Dissociation Constant for NADH;
(§6) Et=Total enzyme concentration.
(§7) However, the parameters could not be fit in this model with any accuracy, due to the large apparent value of KM for 2,5-diketo-D-gluconic acid, and the low concentration of 2,5-diketo-D-gluconic acid that was used. The 2,5-diketo-D-gluconic acid concentrations were not large enough to saturate the enzyme, so a further mathematical simplification was required. Preliminary fitting of the model indicated both kcat and Kb to be very large in comparison to Ka and Kia Therefore, the rate equation was simplified to the following equation (2): [formula]
(§8) This equation is only valid when B<<Kb.
(§9) This equation was then used to fit the kinetic data, with much better results.
(§10) Other comparisons can also be made between the different mutants using these parameters. […]
(§11) Cells containing plasmids for some of the mutant reductases were grown up on a 1 liter scale using a 10 ml inoculum from a saturated overnight culture. The cells were grown until absorbance of the culture at 600 nm was approximately 1.0. The cells were then induced by adding IPTG to a final concentration of 1 mM. The cells were harvested after growth at 37° C. for 4 hours. The cells were then pelleted by centrifugation and frozen for later use. At a later date, cells were thawed and lysed with the Bug Buster detergent (Novagen) containing Complete Protease Inhibitor Cocktail Tablets (Roche). The pH was lowered to 5.5 with 20 mM sodium acetate (NaOAc) and NaCl was added to a final concentration of 0.15 M. After 10 minutes with the detergent, the cell debris was removed by centrifugation, and the supernatant was loaded onto disposable chromatography columns containing a 10 ml bed volume of DEAE Cellulose (Sigma) for a batch weak ion exchange step. The resin was washed with 0.15 M NaCl, still in the presence of NaOAc, pH 5.5. The bound proteins were then eluted by two washes with 0.5 M NaCl. The eluted material was then diluted back to 0.15 M NaCl by the addition of more 20 mM NaOAc buffer. This was then loaded onto a 4.6 mmD/100mml PEEK column (PerSeptive Biosystems) containing 50 μm DEAE Ceramic HyperD F resin (BioSepra) using an FPLC system. The high performance resin was washed with 0.1 M NaCl and the bound proteins were eluted using a linear salt gradient up to 0.4 M NaCl. Active fractions were pooled and the pH was raised to 7.0 using 50 mM bis-Tris. The pooled fractions were then concentrated by ultrafiltration in a stirred cell unit using a polyethersulfone membrane with a 10,000 MW cut-off (Millipore). The concentrate was loaded onto a Superdex-75 gel filtration column (Pharmacia) using 50 mM bis-Tris pH 7.0 with an FPLC system. The active fractions were again pooled. A small sample from the pooled fractions was electrophoresed on a polyacrylamide gel in the presence of SDS in order to insure homogeneity of the final product.
(§12) NADPH and NADH were prepared fresh for each use in kinetic measurements. These reactions were performed in 96-well microtiter plates using a SpectraMax 190 plate reader (Molecular Devices). Varying amounts of cofactor and substrate were added to the wells and reaction was initiated by the addition of the mutant enzyme. The final volume of each reaction was 200 μl, the reactions were buffered with 50 mM bis-Tris pH 7.0, and the temperature was held at 25° C. […] Initial rate data was collected in each well, and a standard curve was generated each day in order to correlate the change in absorbance of the reaction to a change in concentration of cofactors. All measurements were performed in triplicate (at least) and the runs were averaged for use in kinetic modeling.

[2] = target: T2, 2,5-diketo-D-gluconic acid reductase A (Corynebacterium sp., wild type SEQ ID NO:1) variant R238E (Corynebacterium sp., UniProt P06632, R238E); assay: as above; assay type: biochemical
T2 construct: GroES fragment (N); made in house; host or cells: E. coli JM109
T2 sequence (P06632 whole entry R238E, the tested form may be a part): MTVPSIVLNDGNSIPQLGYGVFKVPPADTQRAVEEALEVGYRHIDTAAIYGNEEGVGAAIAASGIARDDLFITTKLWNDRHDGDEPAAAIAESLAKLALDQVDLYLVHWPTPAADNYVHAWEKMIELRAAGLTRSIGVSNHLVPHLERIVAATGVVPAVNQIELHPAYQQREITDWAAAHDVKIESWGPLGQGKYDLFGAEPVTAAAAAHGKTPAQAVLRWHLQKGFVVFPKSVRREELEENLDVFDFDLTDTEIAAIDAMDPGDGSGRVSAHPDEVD
Experimental: as §1, §2, §3, §4, §5, §6, §7, §8, §9, §10, §11, §12

[3] = target: T3, 2,5-diketo-D-gluconic acid reductase A (Corynebacterium sp., wild type SEQ ID NO:1) variant R238H (Corynebacterium sp., UniProt P06632, R238H); assay: as above; assay type: biochemical
T3 construct: GroES fragment (N); made in house; host or cells: E. coli JM109
T3 sequence (P06632 whole entry R238H, the tested form may be a part): as the sequence (P06632 whole entry R238E, the tested form may be a part) above, with E238H counted along it
Experimental: as §1, §2, §3, §4, §5, §6, §7, §8, §9, §10, §11, §12

[4] = target: T4, 2,5-diketo-D-gluconic acid reductase A, wild type, Corynebacterium sp. (ATCC Strain No. 31090; Genbank Accession No. 4699594; SEQ ID NO:1) (Corynebacterium sp., UniProt P06632); assay: as above; assay type: biochemical
T4 construct: GroES fragment (N); made in house; host or cells: E. coli JM109
T4 sequence (P06632 whole entry, the tested form may be a part): as the sequence (P06632 whole entry R238E, the tested form may be a part) above, with E238R counted along it
Experimental: as §1, §2, §3, §4, §5, §6, §7, §8, §9, §10, §11, §12

[5] = system: hemolymph 3-dehydroecdysone 3β-reductase from Spodoptera littoralis; settings: read-out: KM for NADH; Chen et al. Eur. J. Biochem. 1996; cited from earlier work
[6] = kcat/Ka apparent with NADH, relative to wild type
[7] = versus wild type, NADH as varied substrate

T1 sequence (P06632 whole entry R235T, the tested form may be a part): as the sequence (P06632 whole entry R238E, the tested form may be a part) above, with R235T, E238R counted along it

NC(=O)C1=CN([C@@H]2O[C@H](COP(=O)(O)OP(=O)(O)OC[C@H]3O[C@@H](n4cnc5c(N)ncnc54)[C@H](O)[C@@H]3O)[C@@H](O)[C@H]2O)C=CC1 [NADH]
(kcat/KbKia)/(kcat/KbKia)wt [1, 6]: 0.54 | Kia/(Kia)wt ([1]; relative to wild type, NADH): 3.40 | increase of apparent Ka [1, 7]: more than 3 fold | increase of apparent kcat [1, 7]: 2 fold | Kd [2]: 8450 ± 1740 µM | (kcat/KbKia)/(kcat/KbKia)wt [2, 6]: 0.63 | Kia/(Kia)wt ([2]; relative to wild type, NADH): 3.25 | change of apparent kcat [2, 7]: doubled | increase of apparent Ka [2, 7]: more than 3 fold | Kd [3]: 2070 ± 130 µM | (kcat/KbKia)/(kcat/KbKia)wt [3, 6]: 6.71 | Kia/(Kia)wt ([3]; relative to wild type, NADH): 0.80 | improvement in apparent kcat [3, 7]: more than 5 fold | (kcat/KbKia)/(kcat/KbKia)wt [4, 6]: 1.00 | Kd ([4]; read-out: Kia): 2600 ± 160 µM | Kia/(Kia)wt ([4]; relative to wild type, NADH): 1.00 | Km [5]: 22.8 µM

— patent US6423518B1, “Design and production of mutant 2,5-diketo-D-gluconic acid reductase enzymes with altered cofactor dependency” (Rutgers, the State University, priority 2000, dated 2002)
